# Measurements reported in patent publication US20200114012A1, “METHOD FOR PRODUCING A LIQUID COMPOSITION” (The University of Liverpool, priority 2017, published 2020).
# Columns and labels:
# [1] = Precipitation of TDF particulates with stabiliser combinations (Example 5); type: physicochemical; settings: Stabiliser B combined with Stabiliser A AOT, procedure of Example 2
# Protocol: 800 μL of the stabiliser-containing dichloromethane solution was pipetted into a 4 mL volume glass vial. 200 μL of TDF-containing methanol solution was rapidly pipetted into the same vial, which was then sealed and briefly shaken. A white, hazy suspension formed instantaneously. […] The TDF loading of the particulates was altered by changing the concentration of the methanol and dichloromethane solutions prior to mixing. It should be noted that this approach allows for different volumes of the TDF particulate suspensions to be produced simply by increasing the volumes added, so long as the 4:1 ratio of dichloromethane to methanol is maintained, this allows for fine control of the concentration of the TDF particles dispersed in the oil of the liquid composition.
# Following the procedure described in Example 2, the following combinations of stabilisers were used to form TDF particulates (see table 7 below).
# [2] = Solubility of TDF in solvents and of TDF particulates in oils; type: physicochemical
# Text: Therefore methanol was used for the first solvent. TDF is not soluble in dichloromethane, which was used as the second solvent.
# A selection of biocompatible natural oils were used to form liquid compositions. These oils were selected as the TDF particulates were insoluble in them and the oils could be dissolved into the mixed solvent system. The oils used were peanut oil, soy bean oil, sesame oil and safflower oil.
Successful Precipitation [1],solubility in dichloromethane ([2]; dichloromethane),"solubility ([2]; methanol, organic solvent or mixture)",Compound
,not soluble,≤ 80 mg/mL,"CC(C)OC(=O)OCOP(=O)(CO[C@H](C)Cn1cnc2c(N)ncnc21)OCOC(=O)OC(C)C.O=C(O)/C=C/C(=O)O [TDF, tenofovir disoproxil fumerate]"
Yes,,,polyethylene glycol sorbitan monooleate [Tween ™ 80]
Yes,,,polyglyceryl-3 diisostearate [Plurol ™ diisosteraque]
Yes,,,polyglyceryl-6 dioleate [Plurol ™ Olique]
Yes,,,polyoxyethylenesorbitan monopalmitate [Tween ™ 40]
Yes,,,sorbitan oleate [Span ™ 80]

# Second part, the compound before the results:
Compound,Successful Precipitation [1],solubility in dichloromethane ([2]; dichloromethane),"solubility ([2]; methanol, organic solvent or mixture)"
"CCCCC/C=C\C/C=C\CCCCCCCC(=O)OCC(O)CO (stereo not drawn) [Maisine ™ 35-1, glyceryl monolinoleate]",Yes,,
"CCCCCCCC/C=C\CCCCCCCC(=O)OCC(O)CO (stereo not drawn) [Pecol ™, glycerol mono-oleate]",Yes,,
polyoxyethylene (2) stearyl ether [Brij ™ S2],Yes,,
propylene glycol monocaprylate (type I) [Capryol ™ PGMC],Yes,,
propylene glycol monocaprylate (type II) [Capryol ™ 90],Yes,,
propylene glycol monolaurate (type I) [Lauroglycol ™ FCC],Yes,,
propylene glycol monolaurate (type II) [Lauroglycol ™ 90],Yes,,
propylene glycol monopalmitostearate [Monosteol ™],Yes,,
